PubChem BioAssay (NCI)
Several values for one entry are separate records, joined by “and”; a condition that tells them apart may be missing. Equal entries are not always repeated.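 Assay format: 96-well plates, 48-hour exposure. GI50 = concentration required for 50% inhibition of growth. TGI: concentration producing complete growth inhibition.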

How the values were obtained:
Assay in all cases: NCI tumour cell line growth inhibition, 48 h
ACHN renal = tested on: ACHN renal
CAKI-1 renal = tested on: CAKI-1 renal
HCT-15 colon = tested on: HCT-15 colon
K-562 leukemia = tested on: K-562 leukemia
M14 melanoma = tested on: M14 melanoma
MDA-MB-231 breast = tested on: MDA-MB-231 breast
OVCAR-8 ovarian = tested on: OVCAR-8 ovarian
SN12C renal = tested on: SN12C renal
SNB-75 CNS = tested on: SNB-75 CNS
SR leukemia = tested on: SR leukemia

SMILES | GI50 (ACHN renal) | TGI (ACHN renal) [µM] | GI50 (CAKI-1 renal) | TGI (CAKI-1 renal) | GI50 (HCT-15 colon) | TGI (HCT-15 colon) | GI50 (K-562 leukemia) | TGI (K-562 leukemia) | GI50 (M14 melanoma) | TGI (M14 melanoma) | GI50 (MDA-MB-231 breast) | TGI (MDA-MB-231 breast) | GI50 (OVCAR-8 ovarian) | TGI (OVCAR-8 ovarian) | GI50 (SN12C renal) | TGI (SN12C renal) | GI50 (SNB-75 CNS) | TGI (SNB-75 CNS) [µM] | GI50 (SR leukemia) | TGI (SR leukemia)
O=C1NC(=NC(CO)Cc2ccccc2)S/C1=C\c1ccc2ncccc2c1 (centres undefined) | 11.2 µM and 3.55 µM | > 25 | 9.35 µM and 3.64 µM | > 25 µM | 10.5 µM and 4.19 µM | > 25 µM | 11.2 µM and 3.48 µM | > 25 µM | 14 µM and 7.08 µM | > 25 µM | > 25 µM and 10.3 µM | > 25 µM | > 21.1 µM and 5.24 µM | > 25 µM | 14.9 µM and 3.46 µM | > 25 µM | 10.8 µM and 1.77 µM | > 25 | 6.94 µM and 0.888 µM | > 22.6 µM and 5.23 µM
COc1cccc(C2SC(N)=Nc3c2c(C)nn3C(=O)c2ccccc2O)c1 (centres undefined) | – | > 10 | – | > 10 µM | – | > 10 µM | – | > 10 µM | – | > 10 µM | – | > 9.64 µM | – | > 10 µM | – | > 10 µM | – | > 10 | – | > 7.36 µM
Nc1c(C(=O)Nc2cccc(C(F)(F)F)c2)sc2nc3c(cc12)CCCCC3 | 1.56 µM | 3.73 | 2.08 µM | 10.1 µM | 10.7 µM | > 100 µM | 5.42 µM | 29.7 µM | 4.15 µM | 41.5 µM | 4.4 µM | 22.7 µM | 3.49 µM | 19.8 µM | 3.41 µM | 19.3 µM | 1.74 µM | 3.93 | 4.03 µM | 21.7 µM
O=CNc1ccc2c(c1)C(=O)c1ccccc1-2 | – | > 100 | – | > 100 µM | – | > 100 µM | – | > 100 µM | – | > 100 µM | – | > 100 µM | – | > 100 µM | – | > 100 µM | – | > 100 | – | > 100 µM
O=C(O)c1ccc2c(c1C(=O)O)C(=O)OC2(c1ccc(O)cc1)c1ccc(O)cc1 | – | > 100 | – | > 100 µM | – | > 100 µM | – | > 100 µM | – | > 100 µM | – | > 100 µM | – | > 100 µM | – | > 100 µM | – | > 100 | – | > 100 µM
O=S(=O)(c1ccccc1)N1CCN(S(=O)(=O)c2ccccc2)c2ccccc21 | – | > 100 | – | > 100 µM | – | > 100 µM | – | > 100 µM | – | > 100 µM | – | > 100 µM | – | > 100 µM | – | > 100 µM | – | > 100 | – | > 100 µM
CC(C)[C@@H]1C=C2CC[C@H]3[C@](C)(CN)CCC[C@]3(C)[C@H]2CC1 | 5.67 µM | 18.5 | 1.85 µM | 4.66 µM | 2.08 µM | 4.94 µM | 1.96 µM | 4.36 µM | 1.86 µM | 3.4 µM | 2.12 µM | 5.47 µM | 2.28 µM | 5.7 µM | 3.42 µM | 14 µM | 14.8 µM | 28.8 | 2.78 µM | 12.4 µM
Nc1n[nH]c2cccc(C#Cc3cccc(C(=O)Nc4ccc(CN5CCOCC5)c(C(F)(F)F)c4)c3)c12 | 2.63 µM | 9.96 | 3.2 µM | 11.4 µM | 2.56 µM | 9.32 µM | 0.0233 µM | > 100 µM | 1.17 µM | 3.59 µM | 1.3 µM | 4.7 µM | 2.54 µM | 8.18 µM | 2.48 µM | 9.48 µM | 3.21 µM | 12.8 | 1.97 µM | > 100 µM
c1ccc(Sc2ncnc3ccccc23)cc1 | 11 µM | 31.6 | 12.7 µM | 32.3 µM | 8.03 µM | 37.2 µM | 9.72 µM | > 100 µM | 12.3 µM | 27.6 µM | 13.5 µM | 49.9 µM | 19.8 µM | 75.9 µM | 10.8 µM | 27.4 µM | 12.1 µM | 35 | 4.78 µM | 53.1 µM
O=C(O)c1nc2nc(Cl)c(Cl)nc2[nH]1 | – | > 100 | – | > 100 µM | – | > 100 µM | – | > 100 µM | – | > 100 µM | – | > 100 µM | – | > 100 µM | – | > 100 µM | – | > 100 | – | > 100 µM
N#CC(C#N)=C/C=C(\Sc1nc2ccccc2s1)c1ccc(Cl)cc1 | 4.61 µM | > 35.5 | 1.93 µM | 9.82 µM | 6.72 µM | > 44.2 µM | 1.45 µM | > 24.6 µM | 3.19 µM | 10.5 µM | 5.87 µM | 22.3 µM | 7.53 µM | 25 µM | 7.88 µM | > 53.1 µM | 1.31 µM | 8.82 | 0.844 µM | –
Cc1cc(I)cc(CN(CCCN(C)C)C(C)C)c1O | 17.3 µM | 31.6 | 16.5 µM | 33.6 µM | 17.5 µM | 39.5 µM | 16.3 µM | 34.7 µM | 16.2 µM | 31 µM | 18.1 µM | 43.6 µM | 31.6 µM | > 100 µM | 37.8 µM | > 100 µM | 16.6 µM | 36.3 | 15.9 µM | 35.8 µM
COc1ccc(C2[C@@H](c3ccccc3)C(=O)N2c2cc(OC)c(OC)c(OC)c2)cc1F (some centres undefined) | 0.044 µM | > 100 | 0.0332 µM | > 100 µM | 0.0336 µM | > 100 µM | 0.0321 µM | > 100 µM | 0.0226 µM | 0.0672 µM | 0.0452 µM | > 100 µM | 0.0344 µM | > 100 µM | 0.0561 µM | > 100 µM | 0.0314 µM | > 100 | 0.0373 µM | > 100 µM
CC(=O)CC(OC(C)=O)C1=CCC2C(CC1C)OC(=O)C2C (centres undefined) | – | > 100 | – | > 100 µM | – | > 100 µM | – | > 100 µM | – | > 100 µM | – | > 100 µM | – | > 100 µM | – | > 100 µM | – | > 100 | – | > 100 µM
CC1(COc2ccc3c(c2)ncn3-c2ccc3cccc(N4CCC(N)CC4)c3n2)COC1 | 2.61 µM and 2.24 µM | > 10 | 4.75 µM and 3.55 µM | 19.6 µM and > 10 µM | 3.37 µM and 2.92 µM | 12.3 µM and > 10 µM | 2.1 µM and 1.94 µM | 8.36 µM and 8.92 µM | 3.55 µM and 2.68 µM | 10.1 µM and 6.77 µM | 2.55 µM and 1.88 µM | 8.69 µM and 7.63 µM | 2.82 µM and 2.84 µM | 10.7 µM and > 10 µM | 0.945 µM and 1.12 µM | 15.3 µM and > 10 µM | 0.734 µM | 5.65 | 0.769 µM and 0.347 µM | 4.7 µM and 2.4 µM
CN1CC[C@@H](NC(=O)Nc2ccc(C#N)cc2)C[C@@H]1c1nc2ccccc2[nH]1 | > 86.5 µM | > 100 | > 100 µM | > 100 µM | > 100 µM | > 100 µM | > 100 µM | > 100 µM | > 100 µM | > 100 µM | > 100 µM | > 100 µM | > 100 µM | > 100 µM | > 78.9 µM | > 100 µM | > 73.2 µM | > 100 | 48.2 µM | > 100 µM
COc1ccc(/C=N/NC(=O)c2cccc3cc[nH]c23)cc1O | 4.19 µM | > 100 | 0.192 µM | > 49 µM | 0.615 µM | > 46.1 µM | 2.17 µM | > 100 µM | 1.13 µM | > 100 µM | 0.685 µM | > 35 µM | 6.2 µM | > 100 µM | 0.493 µM | > 40.9 µM | 0.24 µM | > 100 | 0.349 µM | > 41.2 µM
O=C(/C=C/c1ccc(O)cc1)c1ccc(O)cc1 | – | > 74.3 | – | 37.9 µM | – | 57.5 µM | – | > 82.3 µM | – | 42.7 µM | – | > 100 µM | – | 41.6 µM | – | 79 µM | – | 51.7 | – | 51.3 µM
